The values below come from patent US20220306695A1, “COMPSTATIN ANALOGUES AND THEIR MEDICAL USES” (priority 2019, published 2022).

The subject of series [1] is classical complement pathway. The series can be described thus: In vitro haemolysis assay (inhibition of classical complement pathway). The class given is cell-based, human. Particulars: Table 3; human serum, sensitized sheep red blood cells; read-out: IC50[nM], in vitro analysis of inhibition of hemolysis. Summed up:
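Serially diluted compound (9 points) was preincubated 15 min at room temperature with diluted human serum, titrated per batch to give 70-90% maximal haemolysis, in Tris/casein buffer pH 7.4 with Mg2+/Ca2+. Antibody-sensitized sheep erythrocytes were then added for 30 min at 37° C, and the reaction was stopped with EDTA. Haemolysis was read at A405, with IC50 from 4PL fit.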

Series [2] is described as follows: Solubility test at 10 mg/mL (visual inspection and light scattering). Type of series: physicochemical. The conditions noted are these: for Solubility, Condition 1 Acetate pH 4: 10 mg/mL compound in 100 mM acetate pH 4; for Solubility, Condition 2 Acetate pH 5: 10 mg/mL compound in 100 mM acetate pH 5; for Solubility, Condition 3 Phosphate pH 6: 10 mg/mL compound in 100 mM phosphate pH 6; for Solubility, Condition 4 Phosphate pH 7: 10 mg/mL compound in 100 mM phosphate pH 7; for Solubility, Condition 5 Phosphate pH 7.5: 10 mg/mL compound in 100 mM phosphate pH 7.5.

Starred links: 1 amine or outer side, 2 acyl side, 3 side chain; linkers in the order of their positions; H or OH if unused. Positions of bridges follow the written chain, without caps; N, C: chain ends. Non-standard residues stand in square brackets, D forms with d. Residues, ends and D or L forms follow the SMILES beside them. Groups on a side chain read outwards from the residue. *: point of attachment. Trp(1-Me) = Cn1cc(C[C@H](N)C(=O)O)c2ccccc21; C18 diacid = O=C(O)CCCCCCCCCCCCCCCCC(=O)*; γGlu = O=C(O)[C@H](CCC(=O)[*:2])N[*:1]; 1Nal = N[C@@H](Cc1cccc2ccccc12)C(=O)O; Sar = CNCC(=O)O

Consider `CC[C@H](C)[C@@H]1NC(=O)[C@@H](NC(=O)[C@H](Cc2ccccc2)NC(=O)[C@H](CCC(=O)O)NC(=O)[C@H](CO)NC(C)=O)CSSC[C@@H](C(=O)N(C)CC(=O)N[C@@H](CCC(=O)O)C(=O)N[C@@H](C)C(N)=O)NC(=O)[C@H](CCCNC(=N)N)NC(=O)[C@H](Cc2c[nH]cn2)NC(=O)[C@H](CCC(=O)O)NC(=O)CN(C)C(=O)[C@H](Cc2c[nH]c3ccccc23)NC(=O)[C@H](CC(=O)O)NC(=O)[C@H](CCC(N)=O)NC(=O)[C@H](Cc2cn(C)c3ccccc23)NC1=O` [Compound 76, Ac-SEFC(1)I[1-Me-Trp]QDW[SarlEHRC(1)[Sar]EA-NH2] (Ac-SEFCI[Trp(1-Me)]QDW[Sar]EHRC[Sar]EA-NH2; disulfide 4-14), for which the IC50 (in general, the concentration that gives 50% inhibition) in series [1] was below 100 nM. For the same compound, in series [2], the “Solubility, Condition 1 Acetate pH 4” value is listed as “− (denotes lack of solubility at the given condition, as UV absorbance at 340 nm exceeds 0.1 AU and/or it is visibly turbid or contains particles.)”; the “Solubility, Condition 2 Acetate pH 5” value is on record as “− (denotes lack of solubility at the given condition, as UV absorbance at 340 nm exceeds 0.1 AU and/or it is visibly turbid or contains particles.)”; the “Solubility, Condition 3 Phosphate pH 6” value was “+ (denotes solubility at the given condition, as determined by UV absorbance being less than 0.1 AU at 340 nm and the sample being clear when manually inspected.)”; the “Solubility, Condition 4 Phosphate pH 7” value is “+ (denotes solubility at the given condition, as determined by UV absorbance being less than 0.1 AU at 340 nm and the sample being clear when manually inspected.)”. Also, in series [2], the “Solubility, Condition 5 Phosphate pH 7.5” value was “+ (denotes solubility at the given condition, as determined by UV absorbance being less than 0.1 AU at 340 nm and the sample being clear when manually inspected.)”.

`CC[C@H](C)[C@@H]1NC(=O)[C@@H](NC(=O)[C@H](Cc2ccc(O)cc2)NC(C)=O)CSSC[C@@H](C(=O)N[C@H](C(=O)NCC(=O)N[C@@H](C)C(=O)N[C@@H](CCC(=O)O)C(=O)N[C@@H](CO)C(N)=O)[C@@H](C)O)NC(=O)[C@H](CCCNC(=N)N)NC(=O)[C@H](Cc2c[nH]cn2)NC(=O)[C@H](CCC(=O)O)NC(=O)CNC(=O)[C@H](Cc2c[nH]c3ccccc23)NC(=O)[C@H](CC(=O)O)NC(=O)[C@H](CCC(N)=O)NC(=O)[C@H](Cc2c[nH]c3ccccc23)NC1=O` [Compound 66] (Ac-YCIWQDWGEHRCTGAES-NH2; disulfide 2-12): in series [1], the IC50 is below 100 nM. Further, in series [2], the “Solubility, Condition 1 Acetate pH 4” value is reported as “− (denotes lack of solubility at the given condition, as UV absorbance at 340 nm exceeds 0.1 AU and/or it is visibly turbid or contains particles.)”; the “Solubility, Condition 2 Acetate pH 5” value is “− (denotes lack of solubility at the given condition, as UV absorbance at 340 nm exceeds 0.1 AU and/or it is visibly turbid or contains particles.)”; the “Solubility, Condition 3 Phosphate pH 6” value was “+ (denotes solubility at the given condition, as determined by UV absorbance being less than 0.1 AU at 340 nm and the sample being clear when manually inspected.)”; the “Solubility, Condition 4 Phosphate pH 7” value was “+ (denotes solubility at the given condition, as determined by UV absorbance being less than 0.1 AU at 340 nm and the sample being clear when manually inspected.)”. For the same compound, the “Solubility, Condition 5 Phosphate pH 7.5” value in series [2] is “+ (denotes solubility at the given condition, as determined by UV absorbance being less than 0.1 AU at 340 nm and the sample being clear when manually inspected.)”.

Regarding `CC[C@H](C)[C@@H]1NC(=O)[C@@H](NC(=O)[C@H](Cc2ccc(O)cc2)NC(C)=O)CSSC[C@@H](C(=O)N[C@H](C(=O)NCC(=O)N[C@@H](C)C(=O)N[C@@H](CCC(=O)O)C(=O)N[C@@H](CO)C(N)=O)[C@@H](C)O)NC(=O)[C@H](CCCNC(=N)N)NC(=O)[C@H](Cc2c[nH]cn2)NC(=O)[C@H](CCC(=O)O)NC(=O)CNC(=O)[C@H](Cc2c[nH]c3ccccc23)NC(=O)[C@H](CC(=O)O)NC(=O)[C@H](CCC(N)=O)NC(=O)[C@H](Cc2cn(C)c3ccccc23)NC1=O` [Compound 62] (Ac-YCI[Trp(1-Me)]QDWGEHRCTGAES-NH2; disulfide 2-12), the IC50 in series [1] was below 100 nM. Also, in series [2], the “Solubility, Condition 1 Acetate pH 4” value is “− (denotes lack of solubility at the given condition, as UV absorbance at 340 nm exceeds 0.1 AU and/or it is visibly turbid or contains particles.)”; the “Solubility, Condition 2 Acetate pH 5” value was “− (denotes lack of solubility at the given condition, as UV absorbance at 340 nm exceeds 0.1 AU and/or it is visibly turbid or contains particles.)”; the “Solubility, Condition 3 Phosphate pH 6” value was “+ (denotes solubility at the given condition, as determined by UV absorbance being less than 0.1 AU at 340 nm and the sample being clear when manually inspected.)”; the “Solubility, Condition 4 Phosphate pH 7” value is “+ (denotes solubility at the given condition, as determined by UV absorbance being less than 0.1 AU at 340 nm and the sample being clear when manually inspected.)”. Further, the “Solubility, Condition 5 Phosphate pH 7.5” value in series [2] is “+ (denotes solubility at the given condition, as determined by UV absorbance being less than 0.1 AU at 340 nm and the sample being clear when manually inspected.)”.

With `CC[C@H](C)[C@@H]1NC(=O)[C@@H](NC(=O)[C@H](Cc2ccc(O)cc2)NC(=O)[C@H](C)NC(=O)[C@H](CO)NC(=O)CNC(=O)[C@H](CCC(=O)O)NC(C)=O)CSSC[C@@H](C(=O)N(C)CC(=O)N[C@@H](CCC(=O)O)C(=O)NCC(=O)N[C@@H](CCC(=O)O)C(=O)N[C@@H](CCCCNC(=O)CC[C@H](NC(=O)CNC(=O)CC[C@H](NC(=O)CCCCCCCCCCCCCCCCC(=O)O)C(=O)O)C(=O)O)C(N)=O)NC(=O)[C@H](CCCNC(=N)N)NC(=O)[C@H](Cc2c[nH]cn2)NC(=O)[C@H](CCC(=O)O)NC(=O)CNC(=O)[C@H](Cc2c[nH]c3ccccc23)NC(=O)[C@H](CC(=O)O)NC(=O)[C@H](CCC(N)=O)NC(=O)[C@H](Cc2cn(C)c3ccccc23)NC1=O` [Compound 109] (Ac-EGSAYCI[Trp(1-Me)]QDWGEHRC[Sar]EGEK([γGlu-Gly-γGlu-C18 diacid])-NH2; disulfide 6-16), the IC50 in series [1] was below 250 nM. Further, in series [2], the “Solubility, Condition 1 Acetate pH 4” value is listed as “− (denotes lack of solubility at the given condition, as UV absorbance at 340 nm exceeds 0.1 AU and/or it is visibly turbid or contains particles.)”; the “Solubility, Condition 2 Acetate pH 5” value is “+ (denotes solubility at the given condition, as determined by UV absorbance being less than 0.1 AU at 340 nm and the sample being clear when manually inspected.)”; the “Solubility, Condition 3 Phosphate pH 6” value was “+ (denotes solubility at the given condition, as determined by UV absorbance being less than 0.1 AU at 340 nm and the sample being clear when manually inspected.)”; the “Solubility, Condition 4 Phosphate pH 7” value is “+ (denotes solubility at the given condition, as determined by UV absorbance being less than 0.1 AU at 340 nm and the sample being clear when manually inspected.)”. Moreover, in series [2], the “Solubility, Condition 5 Phosphate pH 7.5” value was “+ (denotes solubility at the given condition, as determined by UV absorbance being less than 0.1 AU at 340 nm and the sample being clear when manually inspected.)”.

In the case of `CC[C@H](C)[C@@H]1NC(=O)[C@@H](NC(=O)[C@H](Cc2ccccc2)NC(=O)[C@H](C)NC(=O)[C@H](CO)NC(=O)CNC(=O)[C@H](CCC(=O)O)NC(C)=O)CSSC[C@@H](C(=O)N[C@H](C(=O)N[C@@H](CCC(=O)O)C(N)=O)[C@@H](C)O)NC(=O)[C@H](CCCNC(=N)N)NC(=O)[C@H](Cc2c[nH]cn2)NC(=O)[C@H](CCC(=O)O)NC(=O)CNC(=O)[C@H](Cc2c[nH]c3ccccc23)NC(=O)[C@H](CC(=O)O)NC(=O)[C@H](CCC(N)=O)NC(=O)[C@H](Cc2cccc3ccccc23)NC1=O` [Compound 56] (Ac-EGSAFCI[1Nal]QDWGEHRCTE-NH2; disulfide 6-16), the IC50 in series [1] was below 100 nM. In addition, in series [2], the “Solubility, Condition 1 Acetate pH 4” value is on record as “− (denotes lack of solubility at the given condition, as UV absorbance at 340 nm exceeds 0.1 AU and/or it is visibly turbid or contains particles.)”; the “Solubility, Condition 2 Acetate pH 5” value was “− (denotes lack of solubility at the given condition, as UV absorbance at 340 nm exceeds 0.1 AU and/or it is visibly turbid or contains particles.)”; the “Solubility, Condition 3 Phosphate pH 6” value is “+ (denotes solubility at the given condition, as determined by UV absorbance being less than 0.1 AU at 340 nm and the sample being clear when manually inspected.)”; the “Solubility, Condition 4 Phosphate pH 7” value was “+ (denotes solubility at the given condition, as determined by UV absorbance being less than 0.1 AU at 340 nm and the sample being clear when manually inspected.)”. Besides, the “Solubility, Condition 5 Phosphate pH 7.5” value in series [2] was “+ (denotes solubility at the given condition, as determined by UV absorbance being less than 0.1 AU at 340 nm and the sample being clear when manually inspected.)”.
